For this assay, the system named is HCT116 MTAP-deleted cell lines. Put plainly: Cell viability assay (CellTiter-Glo, 7 days), HCT116 MTAP-deleted. Particulars: Homo sapiens, HCT-116; cell viability, HCT116 MTAP-deleted; class symbols; read-out: CC50. Type of assay: cell-based. The essentials: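 First, compounds are serially diluted in DMSO and dispensed into plates, which are frozen until seeding. Next, cells are added and incubated 7 days at 37 °C, 5% CO2, 90% humidity. Finally, CellTiter-Glo reagent is added and luminescence is measured to derive CC50.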
(In general: In ATP-based viability assays light output follows the ATP content of the culture.)

In general, CC50 refers to the concentration giving 50% cytotoxicity. Consider `Nc1nc2cc(F)c(C(=O)N3CCO[C@@H]4Cc5c(ccc(Br)c5F)[C@@H]43)cc2n2cncc12` [Ff-159, (4-amino-7-fluoroimidazo[1,5-a]quinoxalin-8-yl)((4aS,9aR)-7-bromo-8-fluoro-2,3,9,9a-tetrahydroindeno[2,1-b][1,4]oxazin-4(4aH)-yl)methanone], for which the CC50 is under 100 nM. In the case of `Nc1nc2cc(F)c(C(=O)N3CCO[C@@H]4Cc5cc(Br)c(F)cc5[C@@H]43)cc2n2cncc12` [Ff-160, (4-amino-7-fluoroimidazo[1,5-a]quinoxalin-8-yl)((4aS,9aR)-7-bromo-6-fluoro-2,3,9,9a-tetrahydroindeno[2,1-b][1,4]oxazin-4(4aH)-yl)methanone], the CC50 is under 100 nM.

Turning to `Nc1nc2cc(F)c(C(=O)N3CCO[C@@H]4Cc5c(cc(F)c(Br)c5F)[C@@H]43)cc2n2cncc12` [Ff-161, (4-amino-7-fluoroimidazo[1,5-a]quinoxalin-8-yl)((4aS,9aR)-7-bromo-6,8-difluoro-2,3,9,9a-tetrahydroindeno[2,1-b][1,4]oxazin-4(4aH)-yl)methanone], the CC50 was 100 to 1000 nM. For `Nc1nc2cnc(C(=O)N3CCO[C@@H]4Cc5c(cc(F)c(Br)c5F)[C@@H]43)cc2n2cncc12` [Ff-162, (4-aminoimidazo[1,5-a]pyrido[3,4-e]pyrazin-8-yl)((4aS,9aR)-7-bromo-6,8-difluoro-2,3,9,9a-tetrahydroindeno[2,1-b][1,4]oxazin-4(4aH)-yl)methanone], the CC50 fell in the range of 100 to 1000 nM.

With `CN(C(=O)c1cc2c(cc1F)nc(N)c1cncn12)[C@@H]1CCc2cc(C(F)F)ccc21` [Ff-166, (R)-4-amino-N-(5-(difluoromethyl)-2,3-dihydro-1H-inden-1-yl)-7-fluoro-N-methylimidazo[1,5-a]quinoxaline-8-carboxamide], the CC50 was under 100 nM. With `Nc1nc2cc(F)c(C(=O)N3CCO[C@@H]4Cc5cc(C(F)F)c(F)cc5[C@@H]43)cc2n2cncc12` [Ff-168, (4-amino-7-fluoroimidazo[1,5-a]quinoxalin-8-yl)((4aS,9aR)-7-(difluoromethyl)-6-fluoro-2,3,9,9a-tetrahydroindeno[2,1-b][1,4]oxazin-4(4aH)-yl)methanone] the figure was under 100 nM.

Turning to `Nc1nc2cc(F)c(C(=O)N3CCO[C@@H]4Cc5c(ccc(C(F)F)c5F)[C@@H]43)cc2n2cncc12` [Ff-169, (4-amino-7-fluoroimidazo[1,5-a]quinoxalin-8-yl)((4aS,9aR)-7-(difluoromethyl)-8-fluoro-2,3,9,9a-tetrahydroindeno[2,1-b][1,4]oxazin-4(4aH)-yl)methanone], the cytotoxic concentration (CC50) is under 100 nM. Consider `C[C@@H]1CN(C(=O)c2cc3c(cc2F)nc(N)c2cncn23)[C@H]2c3ccc(C(F)F)c(F)c3C[C@H]2O1` [Ff-170, (4-amino-7-fluoroimidazo[1,5-a]quinoxalin-8-yl)((2R,4aS,9aR)-7-(difluoromethyl)-8-fluoro-2-methyl-2,3,9,9a-tetrahydroindeno[2,1-b][1,4]oxazin-4(4aH)-yl)methanone], for which the 50% cytotoxic concentration (CC50) was under 100 nM.

For `C[C@H]1CN(C(=O)c2cc3c(cc2F)nc(N)c2cncn23)[C@H]2c3cc(F)c(OC(F)F)cc3C[C@H]2O1` [Ff-175, (4-amino-7-fluoroimidazo[1,5-a]quinoxalin-8-yl)((2S,4aS,9aR)-7-(difluoromethoxy)-6-fluoro-2-methyl-2,3,9,9a-tetrahydroindeno[2,1-b][1,4]oxazin-4(4aH)-yl)methanone], the CC50 is under 100 nM. The value for `Nc1nc2cc(F)c(C(=O)N3CCO[C@@H]4Cc5cc(OC(F)(F)F)c(F)cc5[C@@H]43)cc2n2cncc12` [Ff-176, (4-amino-7-fluoroimidazo[1,5-a]quinoxalin-8-yl)((4aS,9aR)-6-fluoro-7-(trifluoromethoxy)-2,3,9,9a-tetrahydroindeno[2,1-b][1,4]oxazin-4(4aH)-yl)methanone] was under 100 nM; that for `Nc1nc2ccc(C(=O)N3CCO[C@@H]4Cc5cc(OC(F)(F)F)c(F)cc5[C@@H]43)cc2n2cncc12` [Ff-177, (4-aminoimidazo[1,5-a]quinoxalin-8-yl)((4aS,9aR)-6-fluoro-7-(trifluoromethoxy)-2,3,9,9a-tetrahydroindeno[2,1-b][1,4]oxazin-4(4aH)-yl)methanone] was under 100 nM. With `Nc1nc2cnc(C(=O)N3CCO[C@@H]4Cc5cc(OC(F)(F)F)c(F)cc5[C@@H]43)cc2n2cncc12` [Ff-178, (4-aminoimidazo[1,5-a]pyrido[3,4-e]pyrazin-8-yl)((4aS,9aR)-6-fluoro-7-(trifluoromethoxy)-2,3,9,9a-tetrahydroindeno[2,1-b][1,4]oxazin-4(4aH)-yl)methanone] the figure was under 100 nM. As for `Cc1ncc2c(N)nc3cnc(C(=O)N4CCO[C@@H]5Cc6cc(OC(F)(F)F)c(F)cc6[C@@H]54)cc3n12` [Ff-179, (4-amino-1-methylimidazo[1,5-a]pyrido[3,4-e]pyrazin-8-yl)((4aS,9aR)-6-fluoro-7-(trifluoromethoxy)-2,3,9,9a-tetrahydroindeno[2,1-b][1,4]oxazin-4(4aH)-yl)methanone], the cytotoxic concentration (CC50) was under 100 nM. Regarding `Cc1ncn2c1c(N)nc1cnc(C(=O)N3CCO[C@@H]4Cc5cc(OC(F)(F)F)c(F)cc5[C@@H]43)cc12` [Ff-180, (4-amino-3-methylimidazo[1,5-a]pyrido[3,4-e]pyrazin-8-yl)((4aS,9aR)-6-fluoro-7-(trifluoromethoxy)-2,3,9,9a-tetrahydroindeno[2,1-b][1,4]oxazin-4(4aH)-yl)methanone], the half-maximal cytotoxic concentration (CC50) was under 100 nM. With `Nc1nc2cc(F)c(C(=O)N3CCO[C@@H]4Cc5cc(OC(F)(F)F)ccc5[C@@H]43)cc2n2cncc12` [Ff-181, (4-amino-7-fluoroimidazo[1,5-a]quinoxalin-8-yl)((4aS,9aR)-7-(trifluoromethoxy)-2,3,9,9a-tetrahydroindeno[2,1-b][1,4]oxazin-4(4aH)-yl)methanone] the figure was under 100 nM.

As for `Nc1nc2cnc(C(=O)N3CCO[C@@H]4Cc5cc(OC(F)(F)F)ccc5[C@@H]43)cc2n2cncc12` [Ff-182, (4-aminoimidazo[1,5-a]pyrido[3,4-e]pyrazin-8-yl)((4aS,9aR)-7-(trifluoromethoxy)-2,3,9,9a-tetrahydroindeno[2,1-b][1,4]oxazin-4(4aH)-yl)methanone], the CC50 was under 100 nM.

Turning to `C[C@@H]1CN(C(=O)c2cc3c(cc2F)nc(N)c2cncn23)[C@H]2c3ccc(-c4cnn(C(F)F)c4)c(F)c3C[C@H]2O1` [Ff-199, (4-amino-7-fluoroimidazo[1,5-a]quinoxalin-8-yl)((2R,4aS,9aR)-7-(1-(difluoromethyl)-1H-pyrazol-4-yl)-8-fluoro-2-methyl-2,3,9,9a-tetrahydroindeno[2,1-b][1,4]oxazin-4(4aH)-yl)methanone], the cytotoxic concentration (CC50) was under 100 nM.

Turning to `C[C@H]1CN(C(=O)c2cc3c(cc2F)nc(N)c2cncn23)[C@H]2c3ccc(-c4cnn(C(F)F)c4)c(F)c3C[C@H]2O1` [Ff-200, (4-amino-7-fluoroimidazo[1,5-a]quinoxalin-8-yl)((2S,4aS,9aR)-7-(1-(difluoromethyl)-1H-pyrazol-4-yl)-8-fluoro-2-methyl-2,3,9,9a-tetrahydroindeno[2,1-b][1,4]oxazin-4(4aH)-yl)methanone], the CC50 was under 100 nM.

Regarding `Nc1nc2ccc(C(=O)N(Cc3ccc(C(F)(F)F)cc3F)C34CC(C3)C4)cc2n2cncc12` [Ff-202, 4-amino-N-(bicyclo[1.1.1]pentan-1-yl)-N-(2-fluoro-4-(trifluoromethyl)benzyl)imidazo[1,5-a]quinoxaline-8-carboxamide], the CC50 was in the range of 100 to 1000 nM. The value for `CN(C(=O)c1ccc2nc(N)c3cncn3c2c1)[C@@H]1COc2cc(-c3cnn(C(F)(F)F)c3)ccc21` [Ff-203, (S)-4-amino-N-methyl-N-(6-(1-(trifluoromethyl)-1H-pyrazol-4-yl)-2,3-dihydrobenzofuran-3-yl)imidazo[1,5-a]quinoxaline-8-carboxamide] was under 100 nM; that for `Cn1cc(-c2ccc(CN(C(=O)c3cc4c(cc3F)nc(N)c3cncn34)C34CC(C3)C4)c(F)c2)cn1` [Ff-204, 4-amino-N-(bicyclo[1.1.1]pentan-1-yl)-7-fluoro-N-(2-fluoro-4-(1-methyl-1H-pyrazol-4-yl)benzyl)imidazo[1,5-a]quinoxaline-8-carboxamide] was under 100 nM. As to `Nc1nc2cc(F)c(C(=O)N(Cc3ccc(-c4cnn(C(F)F)c4)cc3F)C34CC(C3)C4)cc2n2cncc12` [Ff-205, 4-amino-N-(bicyclo[1.1.1]pentan-1-yl)-N-(4-(1-(difluoromethyl)-1H-pyrazol-4-yl)-2-fluorobenzyl)-7-fluoroimidazo[1,5-a]quinoxaline-8-carboxamide], the 50% cytotoxic concentration (CC50) is under 100 nM. Consider `CN(C(=O)c1cc2c(cc1F)nc(N)c1cncn12)C1CCc2nc(Cl)ccc21` (centres unmarked) [Ff-208, 4-amino-N-(2-chloro-6,7-dihydro-5H-cyclopenta[b]pyridin-5-yl)-7-fluoro-N-methylimidazo[1,5-a]quinoxaline-8-carboxamide], for which the CC50 was 100 to 1000 nM. With `CN(C(=O)c1cc2c(cc1F)nc(N)c1cncn12)C1CCc2nc(Br)ccc21` (centres unmarked) [Ff-209, 4-amino-N-(2-bromo-6,7-dihydro-5H-cyclopenta[b]pyridin-5-yl)-7-fluoro-N-methylimidazo[1,5-a]quinoxaline-8-carboxamide] the figure was 100 to 1000 nM; with `Nc1nc2cc(F)c(C(=O)N(Cc3ccc(-c4cnn(C(F)(F)F)c4)cn3)C34CC(C3)C4)cc2n2cncc12` [Ff-211, 4-amino-N-(bicyclo[1.1.1]pentan-1-yl)-7-fluoro-N-((5-(1-(trifluoromethyl)-1H-pyrazol-4-yl)pyridin-2-yl)methyl)imidazo[1,5-a]quinoxaline-8-carboxamide], under 100 nM; with `Nc1nc2cc(F)c(C(=O)N(Cc3ccc(-c4cnn(C(F)F)c4)cn3)C34CC(C3)C4)cc2n2cncc12` [Ff-212, 4-amino-N-(bicyclo[1.1.1]pentan-1-yl)-N-((5-(1-(difluoromethyl)-1H-pyrazol-4-yl)pyridin-2-yl)methyl)-7-fluoroimidazo[1,5-a]quinoxaline-8-carboxamide], under 100 nM.

For the origin of these results see patent US12448388B2, “PRMT5 inhibitors and uses thereof” (Gilead Sciences, Inc., priority 2023, dated 2025).
